The values below come from patent US4532255A, “Amidine compounds and anticomplement agent comprising same” (Torii & Co., Ltd., priority 1980, dated 1985).

Each structure is given as a SMILES string. Values joined by “and” are separate entries in the source; they are usually repeats but may differ in a detail not shown here. Identical values can stand only once. Some results are limits rather than exact numbers.

In data set [1] the test system is Kallikrein. In words: Anti-kallikrein activity (hydrolysis of TAME). The data set is classed as biochemical. The settings on record: at 1×10^-5 M.
The subject of data set [2] is complement mediated hemolysis. Kind of data set: Inhibition of complement mediated hemolysis. The data set is classed as cell-based.
Method: The principle of this method is based on the fact that hemolysis is caused by the activation of complement, when the latter is added to a complex (immune complex) of erythrocytes and the antibody thereof. The degree of hemolysis varies in proportion to the amount of complement added. Therefore, when a known amount of complement admixed with a C1 esterase inhibitor is used, the hemolysis must be suppressed in proportion to the inhibitory activity.
In another data set the target is Thrombin (Homo sapiens, UniProt P00734). Kind of data set: biochemical. Conditions: for IC50: molar concentration inhibiting 50% of TAME hydrolysis, read-out: Thrombin ID50; for inhibition at 10 µM: at 1×10^-5 M, read-out: Thrombin percentage inhibition.
The target of a further data set is T1, C1r (Homo sapiens, UniProt P00736).
T1 sequence (P00736 464-705 limits assumed): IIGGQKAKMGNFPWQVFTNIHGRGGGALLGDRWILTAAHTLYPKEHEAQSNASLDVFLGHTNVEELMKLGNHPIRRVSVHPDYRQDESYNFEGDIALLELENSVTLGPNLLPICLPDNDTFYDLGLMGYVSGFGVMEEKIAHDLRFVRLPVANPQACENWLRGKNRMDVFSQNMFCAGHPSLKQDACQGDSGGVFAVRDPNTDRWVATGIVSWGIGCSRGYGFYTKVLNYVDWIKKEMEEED
T1 sequence (P00736 18-463 partner limits assumed): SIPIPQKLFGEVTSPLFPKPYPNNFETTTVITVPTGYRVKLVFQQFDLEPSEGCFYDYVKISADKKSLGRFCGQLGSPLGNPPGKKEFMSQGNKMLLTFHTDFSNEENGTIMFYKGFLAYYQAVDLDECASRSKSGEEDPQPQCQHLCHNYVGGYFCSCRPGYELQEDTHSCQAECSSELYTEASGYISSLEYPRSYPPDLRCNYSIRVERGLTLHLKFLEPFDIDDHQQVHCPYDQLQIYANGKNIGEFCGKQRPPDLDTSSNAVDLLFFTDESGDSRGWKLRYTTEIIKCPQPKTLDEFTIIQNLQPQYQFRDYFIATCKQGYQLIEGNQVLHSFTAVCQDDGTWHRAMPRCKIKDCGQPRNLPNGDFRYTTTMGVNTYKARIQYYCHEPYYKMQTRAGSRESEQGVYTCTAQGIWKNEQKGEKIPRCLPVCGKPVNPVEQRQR
In words: Anti-C1 esterase (C1r) activity (hydrolysis of AAME). Type of data set: biochemical. Conditions: AAME hydrolysis; read-out: Anti-C1 activity, C1r ID50. How it is done:
The anti-Cl esterase ([…]) activity was determined according to the method of Okamura et al. [K. Okamura, M. Muramatsu and S. Fujii, Biochem. Biophys.

The target in the next data set is T2, C1s (Homo sapiens, UniProt P09871).
T2 sequence (P09871 438-688 limits assumed): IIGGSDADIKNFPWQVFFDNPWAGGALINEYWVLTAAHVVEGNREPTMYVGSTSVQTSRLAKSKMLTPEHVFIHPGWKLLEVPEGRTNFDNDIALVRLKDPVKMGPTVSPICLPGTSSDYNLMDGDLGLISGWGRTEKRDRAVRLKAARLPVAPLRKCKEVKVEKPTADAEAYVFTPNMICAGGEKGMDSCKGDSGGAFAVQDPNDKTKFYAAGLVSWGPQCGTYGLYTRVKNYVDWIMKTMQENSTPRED
T2 sequence (P09871 16-437 partner limits assumed): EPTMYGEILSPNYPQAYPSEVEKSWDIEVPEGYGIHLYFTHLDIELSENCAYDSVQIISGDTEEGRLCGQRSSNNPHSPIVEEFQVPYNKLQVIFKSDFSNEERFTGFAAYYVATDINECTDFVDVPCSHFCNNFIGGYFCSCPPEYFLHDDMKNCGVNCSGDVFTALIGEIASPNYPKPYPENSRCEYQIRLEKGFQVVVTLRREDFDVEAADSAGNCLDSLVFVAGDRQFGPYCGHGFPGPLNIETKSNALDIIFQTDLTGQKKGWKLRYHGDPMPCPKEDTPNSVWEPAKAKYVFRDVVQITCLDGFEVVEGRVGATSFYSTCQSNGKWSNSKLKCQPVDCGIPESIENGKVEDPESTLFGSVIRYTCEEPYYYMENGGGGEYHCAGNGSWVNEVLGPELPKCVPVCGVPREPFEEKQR
In words: biochemical. Conditions: ATEE hydrolysis; read-out: Anti-C1 activity, C1s ID50. On the procedure: The anti-Cl esterase (Clr, Cls) activity was determined according to the method of Okamura et al. [K. Okamura, M. Muramatsu and S. Fujii, Biochem. Biophys. […] The figures in Table 2 have the following meanings:
Cls: Molar concentration of the test compound which inhibits 50% of the ability of Cls to hydrolyse ATEE (acetyltyrosin ethyl ester).

The target in another data set is Plasmin (Homo sapiens, UniProt P00747). Kind of data set: Anti-plasmin activity (hydrolysis of TAME). The data set is classed as biochemical. Conditions: for IC50: molar concentration inhibiting 50% of TAME hydrolysis, read-out: Plasmin ID50. How it is done: (§1) The anti-trypsin, anti-plasmin, anti-kallikrein and anti-thrombin activities were determined according to the method of Muramatsu et al. [M. Muramatsu, T. Onishi, S. Makino, Y. Hayashi and S. Fujii, J. of Biochem., 58, 214 (1965)]. […] The compound No. corresponds to the compound number shown in Examples.

The next data set concerns the target T3, Trypsin (Bos taurus, UniProt P00760).
T3 sequence (P00760 24-246): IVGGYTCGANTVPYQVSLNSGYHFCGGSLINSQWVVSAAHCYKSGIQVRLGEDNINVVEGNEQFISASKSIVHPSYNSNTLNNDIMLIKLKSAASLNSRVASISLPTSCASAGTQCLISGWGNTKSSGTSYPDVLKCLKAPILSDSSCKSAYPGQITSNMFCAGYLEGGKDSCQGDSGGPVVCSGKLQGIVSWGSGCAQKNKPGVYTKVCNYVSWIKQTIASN
Kind of data set: Anti-trypsin activity (hydrolysis of TAME). Type of data set: biochemical. The settings on record: molar concentration inhibiting 50% of TAME hydrolysis; read-out: Trypsin ID50. On the procedure: as §1

Data set [3] relates to Kallikrein. In words: Anti-kallikrein activity (hydrolysis of TAME). The settings on record: molar concentration inhibiting 50% of TAME hydrolysis; read-out: Kallikrein ID50. Type of data set: biochemical. How it is done: The anti-trypsin, anti-plasmin, anti-kallikrein and anti-thrombin activities were determined according to the method of Muramatsu et al. [M. Muramatsu, T. Onishi, S. Makino, Y. Hayashi and S. Fujii, J. of Biochem., 58, 214 (1965)]. The data summarized in Table 1 are expressed in terms of molar concentration (ID50) of the test compound which inhibits 50% of the activity of each enzyme to hydrolyze TAME (tosylalginine methyl ester). The compound No. corresponds to the compound number shown in Examples.

Another data set relates to Forssman shock. Kind of data set: Forssman shock (survival time after hemolysin). Conditions: 5 minutes before hemolysin. Type of data set: in vivo, Male Hartlay guinea pig. From the text: Quite different from other animals, guinea pig has on the surface of its organs a specific antigen called Forssman antigen which specifically reacts with the antibody of sheep erythrocyte. Forssman shock is based on the above principle and is a shock caused by the administration of antibody of sheep erythrocyte to a guinea pig. The Forssman shock was investigated in detail by many researchers and it was definitely shown that this shock is a model case where the complement plays the principal part and that the shock is associated with a classical pathway in which the complement system is activated progressively starting from C1. Since the participation of complement in autoimmune diseases has been established, the Forssman shock can be said to be a useful means for testing a drug for autoimmune diseases. A drug effective for the treatment of Forssman shock is useful as a drug of autoimmune diseases. [Anti-trypsin, anti-plasmin, anti-kallikrein and anti-thrombin activities]
The experiment was performed according to the method of I. G. Offerness et al. [Biochem. Pharmacol., 27 (14), 1873-1878 (1978)]. Male Hartlay guinea pig of about 300 g in body weight was used. Each guinea pig of the control group was administered intravenously with 0.5 ml (minimum dose to cause the shock) of hemolysin (commercial hemolysin, 5,000 U as assayed by the method of Ogata) and the time elapsed until death was observed. For the test group, each guinea pig was administered intravenously with the test compound 5 minutes before the administration of hemolysin and the time (second) elapsed until death was observed.

Data set [4] in a line: Toxicity, median lethal dose (LD50). The settings on record: in vivo.

Sequence of Plasmin (P00747 581-810 limits assumed, species assumed): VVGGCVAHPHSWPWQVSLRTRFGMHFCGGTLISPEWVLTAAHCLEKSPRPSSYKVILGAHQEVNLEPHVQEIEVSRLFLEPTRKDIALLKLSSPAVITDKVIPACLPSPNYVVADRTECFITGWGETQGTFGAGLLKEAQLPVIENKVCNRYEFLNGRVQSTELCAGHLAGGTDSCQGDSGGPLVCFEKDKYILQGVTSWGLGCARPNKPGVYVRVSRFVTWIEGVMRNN
Sequence of Plasmin (P00747 97-580 partner limits assumed, species assumed): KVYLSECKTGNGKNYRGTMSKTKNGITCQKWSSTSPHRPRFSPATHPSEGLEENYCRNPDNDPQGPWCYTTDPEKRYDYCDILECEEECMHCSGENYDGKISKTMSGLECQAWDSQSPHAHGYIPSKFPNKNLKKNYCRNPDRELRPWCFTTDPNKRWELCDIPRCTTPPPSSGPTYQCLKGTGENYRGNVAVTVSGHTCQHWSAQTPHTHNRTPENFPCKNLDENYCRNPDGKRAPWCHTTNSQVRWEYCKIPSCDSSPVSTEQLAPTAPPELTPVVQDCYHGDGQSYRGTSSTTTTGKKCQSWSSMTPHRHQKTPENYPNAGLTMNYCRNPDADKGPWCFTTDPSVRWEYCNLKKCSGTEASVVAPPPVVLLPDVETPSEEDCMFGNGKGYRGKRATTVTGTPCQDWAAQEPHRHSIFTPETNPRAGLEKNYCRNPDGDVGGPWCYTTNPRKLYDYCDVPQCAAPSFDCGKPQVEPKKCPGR

`N=C(N)c1ccc2cc(OC(=O)c3ccc(N)cc3)ccc2c1` [Compound 20, 6-amidino-2-naphthyl 4-aminobenzoate]: the Kallikrein percentage inhibition in the data set on Kallikrein [1] stood at 31%. Besides, the “Inhibition of complement mediated hemolysis (%)” value (shortened to “Inhibition … (%)”) in data set [2] (1 × 10^-4) was found to be 95%; in data set [2] (1 × 10^-5), 46%; in data set [2] (1 × 10^-6), 5%; in [2] (1 × 10^-7) it was 0%. Besides, the IC50 on Thrombin was > 10000 nM; at C1r, 200 nM; on C1s, 200 nM; at Trypsin, 60 nM. Besides, the inhibition at 10 µM at Plasmin (at 1×10^-5 M, read-out: Plasmin percentage inhibition) amounted to 27%.
In the case of `N=C(N)Nc1ccc(C(=O)Oc2ccc3cc(C(=N)N)ccc3c2)cc1` [Compound 27, 6-amidino-2-naphthyl 4-guanidinobenzoate], the “Inhibition … (%)” value was found to be 100% in data set [2] (1 × 10^-4), 100% in data set [2] (1 × 10^-5), 97% in data set [2] (1 × 10^-6) and 44% in [2] (1 × 10^-7). Besides, the IC50 at Thrombin came out at 3000 nM; at C1r, 100 nM; on C1s, 50 nM; with Kallikrein [3], 5000 nM. Besides, the “Time elapsed until death, individual animal” value was 732 s and 740 s and 723 s and 724 s and 590 s and 410 s in the data set on Forssman shock (0.5 mg/kg intravenous); 740 sec. and 820 sec. and Survival and 670 sec. and 1325 sec in the data set on Forssman shock (1.0 mg/kg intravenous). Also, the “Time elapsed until death, average” value in the data set on Forssman shock (0.5 mg/kg intravenous, control average 465) was 653 s; with Forssman shock (1.0 mg/kg intravenous, control average 465 (No. 27), 428 (No. 22)) it was > 889 s. The LD50 in data set [4] (ip) was 200 mg/kg; in data set [4] (po), 2500 mg/kg.
Compound `CN(C(=N)N)c1ccc(C(=O)Oc2ccc3cc(C(=N)N)ccc3c2)cc1` [Compound 28, 6-amidino-2-naphthyl 4-(Nα-methyl)guanidinobenzoate] gave a Kallikrein percentage inhibition with Kallikrein [1] of 20%. The “Inhibition … (%)” value stood at 100% in data set [2] (1 × 10^-4), 99% in data set [2] (1 × 10^-5), 60% in data set [2] (1 × 10^-6) and 6% in data set [2] (1 × 10^-7). For the same compound, the inhibition at 10 µM on Thrombin was 17%. Also, the IC50 on C1r worked out at 3000 nM; on C1s it was 300 nM; at Plasmin, 600 nM; at Trypsin, 600 nM.
Take `CSc1ccc(C(=O)Oc2ccc3cc(C(=N)N)ccc3c2)cc1` [Compound 30]: the Kallikrein percentage inhibition with Kallikrein [1] is recorded as 41%. In addition, the “Inhibition … (%)” value stood at 14% in data set [2] (1 × 10^-4), 90% in data set [2] (1 × 10^-5), 40% in data set [2] (1 × 10^-6) and 6% in data set [2] (1 × 10^-7). For the same compound, the IC50 amounted to 4000 nM at Thrombin; 500 nM on C1r; 300 nM at C1s; 2000 nM at Plasmin; 2000 nM at Trypsin.
For the compound `CC(=O)c1ccc(C(=O)Oc2ccc3cc(C(=N)N)ccc3c2)cc1` [Compound 32], the Kallikrein percentage inhibition in the data set on Kallikrein [1] is 26%. Moreover, the “Inhibition … (%)” value is on record as 93% in [2] (1 × 10^-4), 97% in [2] (1 × 10^-5), 67% in [2] (1 × 10^-6) and 22% in data set [2] (1 × 10^-7). The IC50 at Thrombin stood at 4000 nM; at C1r, 2000 nM; at C1s it was 3000 nM; on Plasmin it was 3000 nM; at Trypsin, 2000 nM.
Compound `N=C(N)c1ccc2cc(OC(=O)c3cccc(C(F)(F)F)c3)ccc2c1` [Compound 33] yielded a Kallikrein percentage inhibition in the data set with Kallikrein [1] of 13%. For the same compound, the “Inhibition … (%)” value stood at 75% in data set [2] (1 × 10^-4), 39% in [2] (1 × 10^-5), 7% in data set [2] (1 × 10^-6) and 22% in data set [2] (1 × 10^-7). Also, the inhibition at 10 µM on Thrombin was found to be 40%. Also, the IC50 on C1r was determined as 1000 nM; at C1s, 3000 nM; at Plasmin it was 3000 nM; on Trypsin, 8000 nM.
